# Patent publication US9248133B2, “Salts of lorcaserin with optically active acids” (Arena Pharmaceuticals, Inc., priority 2010, dated 2016)
# Key:
# [1] = Aqueous solubility by UPLC; format: physicochemical; conditions: for Solubility in water: UPLC
# Experimental: Acquity ultra performance liquid chromatography (UPLC) from Waters was used for solubility and stoichiometry determination. […] UPLC was equipped with Acquity PDA detector. UPLC mobile phase solvent A was 0.1% TFA in DI-water, solvent B was 0.1% TFA in acetonitrile.
# Column temperature was 40±5° C. Acquity UPLC® HSS T3 1.8 μm, 2.1×50 mm column was used.
# A known amount of sample was dissolved in water and analyzed by UPLC.
# [2] = Deliquescence relative humidity (DRH) by water activity meter; format: physicochemical; conditions: for DRH (deliquescence relative humidity): saturated aqueous solution with excess solid at 25° C.
# Source text: If saturated in water with excess solid, a deliquescing compound or salt thereof equilibrated in a closed system at a given temperature produces a % RH in that closed system that is equal to its deliquescing % RH (DRH) at that temperature. Fractional relative humidity is equal to water activity (aw) in the vapor phase and at equilibrium in a closed system, the aw in an aqueous solution is equal to the aw in the vapor phase above the solution (see Equation 1).
# A water activity meter was used to measure DRH for selected salts described herein. […] This instrument is designed with temperature control and a small headspace above the enclosed sample to establish equilibrium between solution and vapor phases quickly.
# [3] = cited from earlier work
# [4] = cited from earlier work; remark: listed apart in the source
# [5] = Dynamic moisture-sorption (DMS) analysis; conditions: for State of the sample after DMS analysis: after removal from the analyzer, PXRD where done; for DMS weight increase at 70% RH: adsorption cycle, 25° C., Form I
# Experimental: Samples were prepared for DMS analysis by placing 5 mg to 20 mg of a sample in a tared sample holder. The sample was placed on the hang-down wire of the VTI balance. A drying step was run, typically at 40° C. and 0.5-1% RH for 1-2 h. The isotherm temperature is 25° C. […] A % weight change smaller than 0.010% over a specified number of minutes (typically 10-20), or up to 2 h, whichever occurs first, is required before continuing to the next % RH hold. The water content of the sample equilibrated as described above was determined at each % RH hold.
# [6] = patients who completed 52 weeks of treatment according to the protocol
# [7] = pivotal phase 3 program, up to two years
# [8] = second phase 3 trial, top quartile of patients
molecule,measurement,setting,value
"CC1(C)C2CC[C@@]1(CS(=O)(=O)O)C(=O)C2.C[C@H]1CNCCc2ccc(Cl)cc21 [(R)-8-Chloro-1-methyl-2,3,4,5-tetrahydro-1H-3-benzazepine (1S)-(+)-10-Camsylate Salt]",Solubility in water,[1],20 mg/mL
same,Deliquescence conclusion from DRH,[2]; 25° C.,not deliquescent
same,DRH (deliquescence relative humidity),[2],99.8 % RH
"C[C@H]1CNCCc2ccc(Cl)cc21.C[C@H]1CNCCc2ccc(Cl)cc21.O=C(O)[C@@H](O)[C@H](O)[C@H](O)[C@@H](O)C(=O)O [Compound 1 Hemimucate Salt, Form I, (R)-8-Chloro-1-methyl-2,3,4,5-tetrahydro-1H-3-benzazepine Hemimucate]",Solubility in water,[1],0.85 mg/mL
"C[C@H]1CNCCc2ccc(Cl)cc21.Cl [lorcaserin, (R)-8-Chloro-1-methyl-2,3,4,5-tetrahydro-1H-3-benzazepine hydrochloride]","Average weight loss, % of body weight","[3]; 12 months, ITT-LOCF analysis",5.8%
same,"Average weight loss, pounds","[3]; 12 months, ITT-LOCF analysis",12.7 pounds
same,Patients who lost greater than or equal to 5% of their body weight from baseline,"[3]; 12 months, ITT-LOCF analysis",47.5%
same,Patients who lost greater than or equal to 10% of their body weight from baseline,"[3]; 12 months, ITT-LOCF analysis",22.6%
same,"Average weight loss of completers, % of body weight",[3]; [6],8.2%
same,"Average weight loss of completers, pounds",[3]; [6],17.9 pounds
same,Tolerability,[3]; phase 3 trial,generally very well tolerated
same,FDA-defined valvulopathy (echocardiograms),[3]; two-year treatment period,no apparent drug-related effect
same,Excess body weight lost,"[4]; first phase 3 trial, based on a normal BMI of 25",about one-third
same,Patients who achieved at least 5% weight loss,[4]; [7],About two-thirds
same,Patients who achieved at least 10% weight loss,[4]; [7],over one-third
same,"Average weight lost, % of weight",[4]; pivotal phase 3 program,about 8%
same,Depression or suicidal ideation,[4]; pivotal phase 3 program,no signal
same,Heart rate and blood pressure,[4]; pivotal phase 3 program,went down
same,Risk of cardiac valvulopathy,[4]; pivotal phase 3 program,did not increase the risk of cardiac valvulopathy
same,"Average weight loss of the top quartile, % of body weight",[4]; [8],16%
same,"Average weight loss of the top quartile, pounds",[4]; [8],35 pounds
"(R)-8-Chloro-1-methyl-2,3,4,5-tetrahydro-1H-3-benzazepine Di-camphorate Salt Solvate",Solubility in water,[1],38.6 mg/mL
same,Aqueous solubility expressed as the free base,"[1]; water, pH 5.2",12.3 mg/mL
same,DMS weight lost on the desorption phase,[5]; 25° C. and 10% RH,over 1.2%
same,State of the sample after DMS analysis,[5],crystalline phase did not change
"(R)-8-Chloro-1-methyl-2,3,4,5-tetrahydro-1H-3-benzazepine Glucuronate Salt [Compound 1 Glucuronate Salt, Form I]",Solubility in water,[1],2.5 mg/mL
"(R)-8-Chloro-1-methyl-2,3,4,5-tetrahydro-1H-3-benzazepine Hemi-L-malate Salt [Compound 1 Hemi-L-Malate Salt, Form I]",Solubility in water,[1],486.3 mg/mL
same,DRH (deliquescence relative humidity),[2],89.9 % RH
"(R)-8-Chloro-1-methyl-2,3,4,5-tetrahydro-1H-3-benzazepine Pyroglutamate Salt [Compound 1 Pyroglutamate Salt, Form I]",DMS weight increase at 70% RH,[5],~17%
same,DMS weight increase at 70% RH,[5]; listed as Compound 1 Pyrogluconate Salt,"FIG. 21: 17-24% weight increase at 70% RH, about"
same,State of the sample after DMS analysis,[5],sticky oil
